The target in the assay is T1, kynurenine-3-hydroxylase (Rattus norvegicus, UniProt O88867).
T1 construct: Rat liver mitochondrial extract was used as enzymatic preparation for this assay; from tissue; host or cells: rat liver mitochondrial extract
In words: KYN-3-OH inhibition; kynurenine 3-hydroxylase assay based on enzymatic synthesis of tritiated water in rat liver mitochondrial extract. Format: biochemical. The settings on record: 37° C., 30 min, pH 8.1, 0.025 mM L-Kynurenine, 0.8 mM NADPH. As for the experimental part:
The assay for kynurenine 3-hydroxylase is based on the enzymatic synthesis of tritiated water during the hydroxylation reaction. Radiolabeled water was quantified following selective adsorption of the isotopic substrate and its metabolite with activated charcoal.
Rat liver mitochondrial extract was used as enzymatic preparation for this assay.
The assay for kynurenine 3-hydroxylase activity was carried out at 37° C. for a time of 30 min. The reaction mixture having a total volume of […] was constituted of 44 mg of suspended extract, 100 mM Tris/Cl^- buffer pH 8.1, 10 mM EDTA, 100 mM KCl, 0.8 mM NADPH, 0.025 mM L-Kynurenine, 0.5 mCi L-(3,5-^3 H)Kynurenine (10 Ci/mmol) and […] of different concentration of inhibitor solutions. After the incubation, the reaction was terminated by adding 1 ml of 7.5% (W/v) activated charcoal, vortexed and centrifuged for 7 min.
A […] aliquot of supernatant was counted by scintillation spectroscopy in 5 ml of liquid scintillation.

SMILES strings stand for the structures.

As usually defined, the IC50 is the midpoint of a concentration-inhibition curve.

T1 sequence (O88867 whole entry): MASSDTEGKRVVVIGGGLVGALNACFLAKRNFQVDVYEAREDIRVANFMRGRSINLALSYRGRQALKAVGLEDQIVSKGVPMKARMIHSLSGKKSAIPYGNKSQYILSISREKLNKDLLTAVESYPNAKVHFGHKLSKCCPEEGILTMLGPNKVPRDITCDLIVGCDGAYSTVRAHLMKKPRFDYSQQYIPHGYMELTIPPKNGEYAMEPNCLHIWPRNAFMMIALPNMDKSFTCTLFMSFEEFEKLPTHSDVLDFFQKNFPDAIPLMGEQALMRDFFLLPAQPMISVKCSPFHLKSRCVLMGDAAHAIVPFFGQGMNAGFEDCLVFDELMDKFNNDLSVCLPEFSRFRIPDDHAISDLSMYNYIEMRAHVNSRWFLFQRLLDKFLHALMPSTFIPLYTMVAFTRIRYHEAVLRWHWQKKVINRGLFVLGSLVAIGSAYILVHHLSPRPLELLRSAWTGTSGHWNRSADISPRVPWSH

`O=C(CC(Cc1ccccc1)c1nnn[nH]1)c1ccc(Cl)c(Cl)c1` (stereo not shown) [PNU-168778, 5-[1-benzyl-3-(3,4-dichlorophenyl)-3-oxo-propyl]-1H-tetrazole] yielded an IC50 of 2320 nM.

(Values after US6133302A, “5-(3-Phenyl-3-oxo-propyl)-1H-tetrazole derivatives” (Pharmacia & Upjohn SpA, priority 1997, dated 2000).)
